Laboratory results published in ChEMBL document CHEMBL1158371, “Design, synthesis, and evaluation of biphenyl-4-yl-acrylohydroxamic acid derivatives as histone deacetylase (HDAC) inhibitors” (Eur J Med Chem, 2009).
The source made the active and inactive calls. The calls are words filed in the database; no cut-off is given here.

Tests used:
[1] = test system: NB-4; test: Antiproliferative activity against human NB4 cells after 72 hrs; assay type: functional, cell-based; conditions: NB-4, 72 h
[2] = test system: IGROV-1; test: Induction of apoptosis in human IGROV1 cells at IC80 after 72 hrs by TUNEL assay; assay type: functional
[3] = test system: IGROV-1; test: Antiproliferative activity against human IGROV1 cells after 72 hrs; assay type: functional, cell-based; conditions: IGROV-1, 72 h
[4] = test system: IGROV-1; test: Antiproliferative activity against cisplatin-resistant human IGROV1 cells after 72 hrs; assay type: functional, cell-based; conditions: IGROV-1, 72 h
[5] = test system: IGROV-1; test: Cell cycle arrest in cisplatin-resistant human IGROV1 cells assessed as partial accumulation at G2/M phase at IC80 using propidium-iodide staining by flow-cytometry; assay type: functional, cell-based
[6] = test system: HCT-116; test: Antiproliferative activity against human HCT116 cells after 72 hrs; assay type: functional, cell-based; conditions: HCT-116, 72 h
[7] = test system: IGROV-1; test: Cell cycle arrest in human IGROV1 cells assessed as accumulation at sub-G1 phase at IC80 after 24 hrs using propidium-iodide staining by flow-cytometry; assay type: functional, cell-based
[8] = target: Histone deacetylase 2 (Homo sapiens, UniProt Q92769); test: Inhibition of HDAC2 in human HeLa cells; assay type: cell-based
Chain of Histone deacetylase 2 (Q92769 whole entry): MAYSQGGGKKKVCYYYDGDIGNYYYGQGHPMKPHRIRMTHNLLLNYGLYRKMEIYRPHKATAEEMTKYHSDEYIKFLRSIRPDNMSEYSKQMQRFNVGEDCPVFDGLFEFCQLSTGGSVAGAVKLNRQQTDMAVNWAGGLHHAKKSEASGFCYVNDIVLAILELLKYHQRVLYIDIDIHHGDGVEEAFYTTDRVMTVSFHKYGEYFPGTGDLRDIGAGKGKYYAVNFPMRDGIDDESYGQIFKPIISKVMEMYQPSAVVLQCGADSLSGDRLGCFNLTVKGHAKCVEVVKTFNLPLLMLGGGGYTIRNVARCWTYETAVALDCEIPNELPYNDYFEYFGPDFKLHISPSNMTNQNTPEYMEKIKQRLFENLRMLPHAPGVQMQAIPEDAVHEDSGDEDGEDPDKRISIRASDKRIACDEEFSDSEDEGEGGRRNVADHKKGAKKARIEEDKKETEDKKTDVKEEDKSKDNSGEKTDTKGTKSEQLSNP

[9] = test system: IGROV-1; test: Antiproliferative activity against human IGROV1 cells after 72 hrs by cell counting; conditions: IGROV-1, 72 h
[10] = test system: IGROV-1; test: Cell cycle arrest in cisplatin-resistant human IGROV1 cells assessed as partial accumulation at S phase at IC80 using propidium-iodide staining by flow-cytometry; assay type: functional, cell-based
[11] = test system: NCI-H460; test: Antiproliferative activity against human H460 cells after 72 hrs; assay type: functional, cell-based; conditions: NCI-H460, 72 h
[12] = test system: Mus musculus; test: Toxicity in athymic nude Swiss mouse bearing human IGROV1 cells assessed as body weight loss at 40 mg/kg, po QD administered 5 days a week for 4 weeks; assay type: organism-based, IGROV-1; parameters: dose 40 mg/kg, route oral; conditions: in vivo
[13] = test system: IGROV-1; test: Antitumor activity against human IGROV1 cells athymic nude Swiss mouse assessed as tumor volume inhibition at 40 mg/kg, po QD administered 5 days a week for 4 weeks; assay type: functional
[14] = test system: Mus musculus; test: Toxicity in athymic nude Swiss mouse bearing human IGROV1 cells assessed as body weight loss at 20 mg/kg, po QD administered 5 days a week for 4 weeks; assay type: organism-based, IGROV-1; parameters: dose 20 mg/kg, route oral; conditions: in vivo
[15] = test system: Mus musculus; test: Toxicity in athymic nude Swiss mouse bearing human HCT116 cells assessed as body weight loss at 40 mg/kg, po QD administered 5 days a week for 4 weeks; assay type: organism-based, HCT-116; parameters: dose 40 mg/kg, route oral; conditions: in vivo
[16] = test system: IGROV-1; test: Antitumor activity against human IGROV1 cells athymic nude Swiss mouse assessed as tumor volume inhibition at 20 mg/kg, po QD administered 5 days a week for 4 weeks; assay type: functional
[17] = test system: HCT-116; test: Antitumor activity against human HCT116 cells athymic nude Swiss mouse assessed as tumor volume inhibition at 40 mg/kg, po QD administered 5 days a week for 4 weeks; assay type: functional

Structure (SMILES)	IC50 [1] [µM]	Activity [2] [%]	IC50 [3] [µM]	IC50 [4] [µM]	Activity [5]	IC50 [6] [µM]	Activity [7]	IC50 [8] [µM]	IC80 [9] [µM]	Activity [10]	IC50 [11] [µM]	Activity [12] [%]	inhibition in vivo at 40 mg/kg [13] [%]	Activity [14] [%]	Activity [15] [%]	inhibition in vivo at 20 mg/kg [16] [%]	inhibition in vivo at 40 mg/kg [17] [%]
CN(C)c1ccc(-c2ccc(/C=C/C(=O)NO)cc2)cc1	0.86	89	1.1	3.5	Active	0.7	Active	> 5	3	Active	–	–	–	–	–	–	–
O=C(/C=C/C=C/c1ccc(-c2ccccc2)cc1)NO	0.66	89	1.4	2.4	Active	0.98	Active	> 5	3	Active	1.9	–	–	–	–	–	–
O=C(CCC1CCC(c2ccc(O)cc2)CC1)NO (configuration not stated)	6.9	–	31.9	23.9	–	4.27	–	–	–	–	9.5	–	–	–	–	–	–
O=C(/C=C/c1ccc(-c2ccc(CO)cc2)cc1)NO	1.81	90	8	5.5	Active	0.8	Active	0.22	15	Active	3.8	–	–	–	–	–	–
COc1ccc(-c2ccc(/C=C/C=C/C(=O)NO)cc2)cc1	–	90	0.57	2.01	–	–	–	> 5	10	–	> 20	–	–	–	–	–	–
O=C(/C=C/c1ccc(-c2ccc(O)cc2)cc1)NO	2.3	40	7.6	6.5	–	0.33	–	–	20	–	6	6	49	2	8	44	65
O=C(CCCCc1ccc(-c2ccccc2)cc1)NO	0.86	65	8	9.1	Active	2.7	Active	0.72	12	Active	4.7	–	–	–	–	–	–
O=C(/C=C/c1ccc(-c2ccc(O)c(Cl)c2)cc1)NO	0.58	–	4.1	3.9	Active	1.46	Active	0.46	–	Active	3.1	–	–	–	–	–	–
O=C(/C=C/Oc1ccc(-c2ccccc2)cc1)NO	–	–	5.4	5.9	–	3.9	–	–	–	–	–	–	–	–	–	–	–
O=C(CCc1ccc(-c2ccc(O)cc2)cc1)NO	3.9	45	0.8	0.95	Active	0.26	Active	1.7	10	Active	15.2	–	–	–	–	–	–
O=C(/C=C/c1ccc(-c2ccncc2)cc1)NO	3.29	–	–	–	–	–	–	> 5	–	–	–	–	–	–	–	–	–
